Source: patent US12714711B2, “Salts of neuroceuticals and uses thereof” (priority 2020, dated 2026)
“Also recorded” adds a separate entry of the source. Read-outs that look alike come from different tables or passages of the source.

Columns and labels:
[1] = Stress study at 40° C./75% relative humidity in a closed system, HPLC analysis; conditions: 40° C./75% RH, 30 days, in the presence of free benzoic acid
[2] = Water solubility at 25° C.; conditions: 25° C.
MK-801 treated mice = assay: Open field test, MK-801 induced hyper-locomotion; conditions: for Recovery rate (%): MK801-treated mice;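 on all read-outs here: adult male C57BL/6J mice, locomotion counted as total photobeam breaks over 60 minutes in an open field photobeam activity system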
Procedure: All mice were tested with open field task.
In this study, the mice were placed in a Plexiglas cage (37.5 cm×21.5 cm×18 cm) under 50-65 lux light intensity. Their spontaneous locomotor activities were measured for 60 minutes using the Photobeam Activity System (PAS)-open field (San Diego Instruments, San Diego, Calif., USA). The total number of photo beam breaks of each mouse was measured as an index of locomotor activity.
The schizophrenia-like behavior, MK801-induced hyperactivity, were tested by open field task.
All mice were tested in an open field task.
The schizophrenia-like behavior, NMDA-hypofunction-induced hyperactivity, were tested by open field task.
The amount of paliperidone administered to Groups 3 and 4 was equal. The schizophrenia-like behavior, MK801-induced hyperactivity, were tested by open field task.
The amount of paliperidone administered to Groups 3 and 4 was equal. The schizophrenia-like behavior, NMDA-hypofunction-induced hyperactivity, were tested by open field task.

[3] = fasting glucose
Procedure: The testing compounds were administered to mice either through intraperitoneal (i.p.) injection or oral gavage before analyzing blood glucose levels.
For the acute study, two cohorts of mice were used.
For repeated-dose study, mice were randomly assigned into five groups as listed below. • Group 1: Vehicle control • Group 2: Clz (3 mg/kg) • Group 3: Clz:NA 1:1 salt (4.13 mg/kg) • Group 4: Clz (10 mg/kg) • Group 5: Clz:NA 1:1 salt (13.77 mg/kg)
The night before blood glucose levels were measured, the mice were fasted. Blood glucose levels were measured with a portable glucose meter (Contour® Plus, Bayer AG, Leverkusen, Germany) After waiting for 60 min, the treatments indicated above were administered. FIG. 75 illustrates the experimental design of this study.
Two cohorts of mice were used in this study. In cohort 1, mice were randomly assigned into the five groups listed below: • Group 1: Vehicle control • Group 2: NA (3.94 mg/kg) • Group 3: Olz (10 mg/kg) • Group 4: Olz (10 mg/kg)+NA (3.94 mg/kg) • Group 5: Olz:NA 1:1 salt (13.94 mg/kg)
Dosing occurred 60 min prior to measuring blood glucose levels.
In cohort 2, mice were randomly assigned into the five groups listed below: • Group 1: Vehicle control • Group 2: Olz (5 mg/kg) • Group 3: Olz:NA 1:1 salt (6.97 mg/kg) • Group 4: Olz (10 mg/kg) • Group 5: Olz:NA 1:1 salt (13.94 mg/kg)
The night before the glucose tolerance test, the mice fasted. Blood glucose levels were measured in whole blood that was collected from the mouse's tail vein. Glucose levels were measured with a portable glucose meter (Contour® Plus, Bayer AG, Leverkusen, Germany), with the measurement occurring 60 min after the mice were dosed with the treatments indicated above Immediately following the glucose measurement, all mice were subjected to a glucose tolerance test, which involved an intraperitoneal challenge injection of 1 g/kg of glucose, followed by measuring blood glucose levels at 0, 30, 60 and 120 minutes.

[4] = mice
Procedure: For the acute study, mice were randomly assigned into one of the five groups listed below. • Group 1: Vehicle control • Group 2: NA (3.77 mg/kg) • Group 3: Clz (10 mg/kg) • Group 4: Clz (10 mg/kg)+NA (3.77 mg/kg) • Group 5: Clz:NA 1:1 salt (13.77 mg/kg)
For the repeated dose study, two cohorts of mice were used. In cohort 1, mice were randomly assigned into one of the three groups listed below. • Group 1: Vehicle control • Group 2: Clz (10 mg/kg) • Group 3: Clz:NA 1:1 salt (13.77 mg/kg)
In cohort 2, the mice were randomly assigned into one of the three groups listed below. • Group 1: Vehicle control • Group 2: Clz (3 mg/kg) • Group 3: Clz:NA 1:1 salt (4.13 mg/kg)
To assess glucose tolerance, mice were fasted overnight on day 18 (for cohort 1) and on day 35 (for cohort 2), and their blood glucose response to i.p. administration of glucose (2 g/kg) was determined. Blood glucose levels were assessed in the whole blood collected from the tail vein, 60 min after drug administration Immediately following this glucose measurement, all mice were subjected to a glucose tolerance test by receiving an intraperitoneal challenge injection of 2 g/kg of glucose, and blood glucose levels were measured at 0, 30, 60 and 120 minutes.
Mice used in this study were randomly assigned into one of the six following groups: • Group 1: Vehicle control • Group 2: Clz (10 mg/kg) • Group 3: Clz (10 mg/kg)+enriched TA (22.5 mg/kg) • Group 4: Clz (10 mg/kg)+enriched TA (11.3 mg/kg) • Group 5: Clz:enriched TA 2:1 salt (32.5 mg/kg) • Group 6: Clz:enriched TA 4:1 salt (21.3 mg/kg)
One day before the glucose tolerance test, the mice fasted overnight and the blood glucose levels were measured in whole blood collected from the tail vein. Glucose levels were measured using a portable glucose meter (Contour® Plus, Bayer AG, Leverkusen, Germany) 60 min after they were acutely administered with the treatments indicated above Immediately following this glucose measurement, all mice were subjected to a glucose tolerance test by receiving an intraperitoneal challenge injection of 2 g/kg of glucose. Blood glucose levels were measured at 30, 60 and 120 minutes.
Two cohorts of mice were used in this study. […]

| SMILES | Degradation during the stress study (HPLC before vs after) [1] | water solubility [2] | Recovery rate (%) (MK-801 treated mice; dosage of clozapine 1 mg/kg (benzoic acid salt study)) | Rate of reduce olanzapine-induced hyperglycemia (%) ([3]; acute i.p., dosage of olanzapine 5 mg/kg) | Rate of reduce olanzapine-induced hyperglycemia (%) ([3]; acute i.p., dosage of olanzapine 10 mg/kg) | Rate of reduce olanzapine-induced hyperglycemia (%) ([3]; acute oral, dosage of olanzapine 10 mg/kg) | blood glucose levels during glucose tolerance test compared to vehicle ([4]; single i.p. dose, olanzapine 5 mg/kg or salt 6.97 mg/kg, glucose 1 g/kg i.p.) | blood glucose levels during glucose tolerance test compared to vehicle ([4]; single i.p. dose, olanzapine 10 mg/kg or salt 13.94 mg/kg, glucose 1 g/kg i.p.) | blood glucose levels during glucose tolerance test compared to vehicle ([4]; single oral dose, olanzapine 10 mg/kg, NA 3.94 mg/kg, mixture, or salt 13.94 mg/kg) | Recovery rate (%) (MK-801 treated mice; dosage of olanzapine 0.1 mg/kg) | locomotor activity in MK-801 treated mice (MK-801 treated mice; oral olanzapine 0.1 mg/kg or nicotinic acid salt 0.14 mg/kg, MK-801 0.2 mg/kg i.p.) |
| --- | --- | --- | --- | --- | --- | --- | --- | --- | --- | --- | --- |
| CN1CCN(C2=Nc3cc(Cl)ccc3Nc3ccccc32)CC1.O=C(O)c1ccccc1 [clozapine:benzoic acid 1:1 salt] | did not degrade; also recorded: more stable than clozapine | 1580 µg/mL | 85.8% | – | – | – | – | – | – | – | – |
| Cc1cc2c(s1)Nc1ccccc1N=C2N1CCN(C)CC1.O=C(O)c1cccnc1 [olanzapine:nicotinic acid 1:1 salt] | – | – | – | 57.6% | 38.4% | 50.5% | significantly higher than vehicle control group at 120 min after glucose challenge | significantly higher than vehicle control group at 120 min after glucose challenge and remained lower than the olanzapine (10 mg/kg) group at all time points | high glucose levels only after 60 mins, before returning to normal glucose levels 120 min post glucose challenge | 47.9% | significant decrease in MK-801-induced hyper-locomotion |
